From patent US20250376466A1, “ESTER COMPOUNDS AND USE THEREOF” (NANJING REJU THERAPEUTICS, CO., LTD., priority 2022, published 2025)

Columns and labels:
[1] = test system: senescent A549 cells, IMR90 cells, RPE cells, mouse chondrocytes, mouse skin fibroblasts; assay: Cell viability of senescent cells (CellTiter-Glo); assay type: cell-based, human; conditions: 1 μM, 72 hours; etoposide (10 μM)-induced senescent cells; FIGS. 2A to 2E
Method: (§1) In this example, human non-small cell lung cancer cell line (A549 cells), human embryonic lung fibroblast cell line (IMR90 cells), human retinal pigment epithelial cells (RPE cells), mouse chondrocytes, and mouse skin fibroblasts were selected. The cells above were induced to obtain senescent cells by etoposide (10 μM). The effect of the target compounds RZ001-RZ006 and RZ201 on the viability of normal and senescent cells above was detected, thereby evaluating the specific killing effect of the prodrugs RZ001-RZ006 and RZ201 on senescent cells above.
(§2) Briefly, senescent and normal cells above were selected and plated separately (96-well plates). After adding the compounds RZ001-RZ006 and RZ201 (concentration: 1 μM) for 72 hours, CellTiter-Glo® Luminescent Cell Viability Assay Kit (Promega) was used to detect cell viability, and the results were shown in FIGS. 2A to 2E.

[2] = test system: normal A549 cells, IMR90 cells, RPE cells, mouse chondrocytes, mouse skin fibroblasts; assay: Cell viability of normal cells (CellTiter-Glo); assay type: cell-based, human; conditions: 1 μM, 72 hours, FIGS. 2A to 2E
Method: as §1, §2

[3] = test system: normal and senescent A549 cells; assay: Senescent cell clearance index (senolytic index); assay type: cell-based, human; conditions: higher index = greater specificity
Method: as §1, §2
Furthermore, the senescent cell clearance index (senolytic index) was also calculated for both normal and senescent A549 cells, as shown in Table 4. A higher index indicates greater specificity in eliminating senescent cells and better safety.

diabetic retinopathy = assay: Mouse model of diabetic retinopathy (STZ), Evans blue penetration; assay type: in vivo; conditions: intravitreal (IVT), 1 μL of 200 μM at 8 and 9 weeks after STZ; Evans blue at 10 weeks; FIG. 4
Method: The efficacy of the compounds of the present disclosure was studied in a mouse model of diabetic retinopathy by multiple administrations of streptozotocin (STZ). C57BL/6J mice at 6 to 7 weeks were weighed and their baseline blood glucose was measured (Sino). STZ (Sigma-Aldrich) was injected intraperitoneally into the mice at 55 mg/Kg for five consecutive days. Age-matched controls were injected with buffer only. Blood glucose was measured again one week after the last STZ injection. 1 μL of the test compound (200 μM, a suspension formulated in 0.015% polysorbate 80, 0.2% sodium phosphate, 0.75% sodium chloride, pH 7.2) was injected intravitreally into the STZ-treated diabetic C57BL/6J mice at 8 and 9 weeks after STZ administration. 10 weeks after STZ treatment, the retinal Evans blue penetration assay was performed.

[4] = test system: wet-age-related macular degeneration (CNV); assay: CNV animal model of wet age-related macular degeneration; assay type: in vivo, mice; conditions: intravitreal (IVT); laser CNV model; FIG. 5
Method: In this example, the efficacy of the compounds of the present disclosure was tested on wet-age-related macular degeneration in a CNV animal model.
Male mice were administered 0.5% probacaine hydrochloride (Alcon) for local anesthesia, and 1% tropicamide to dilate the pupils of the mice. Laser cauterization was performed using a laser photocoagulator (Novus Varia, LUMENIS) with a slit lamp delivery system. And artificially torn adherent glass coverslips were used as contact lenses. Bleeding spots caused by laser were not included in the statistical data.

[5] = test system: idiopathic pulmonary fibrosis; assay: Bleomycin idiopathic pulmonary fibrosis animal model; assay type: in vivo, SD rats; conditions: intraperitoneal (IP) 5 mg/kg, 3 consecutive weeks from day 7; Day 28; FIG. 6
Method: In this example, the efficacy of the compounds of the present disclosure was tested on idiopathic pulmonary fibrosis in an idiopathic pulmonary fibrosis animal model. Briefly, anesthetized 6-week-old SD rats were fixed on a foam board with medical tape. Firstly, the skin on the surface of the trachea was cut with surgical scissors to fully expose the trachea, and a 100-microlitre micro-syringe containing a certain volume of bleomycin (BLM 5 mg/kg) solution drawn based on the body weight of the rat was inserted into the trachea through the oral cavity to administer by slow bolus injection. After administration of the BLM solution, the foam plate was immediately rotated and shaken to distribute the BLM solution as evenly as possible in the lung tissue. Then the skin on the surface of the trachea was sutured with surgical sutures and about 0.5 to 1.0 mL of penicillin solution was dripped onto the epidermis to prevent infection of the surgical wound. After the 7th day of modelling, the compound solution of the present disclosure was administered via intraperitoneal (IP) injection (5 mg/kg) according to the weight of the rat for 3 consecutive weeks. Rats were euthanized by carbon dioxide at Day 28, the lung tissues were removed, the left alveolar lavage fluid was collected for white blood cell (WBC) counting, the right lung tissue portion was used for hydroxyproline (HYP) assay, and the remaining lung tissues were stained for pathology by H&E staining and Masson staining.

osteoarthritis = assay: Osteoarthritis animal model; assay type: in vivo, mice; conditions: intra-articular injection; FIG. 7
Method: In this example, the efficacy of the compounds of the present disclosure was tested on osteoarthritis in an osteoarthritis animal model.
The osteoarthritis animal model was constructed by the following steps. The mice were anesthetized with isoflurane, and fixed. The hair on the right hind limb of the mice was shaved and the skin was disinfected with alcohol, and the skin of the joints was cut. Under an optical microscope, the inside of the right knee joint was incised longitudinally with a blade, without cutting the patellar ligament. The patellar ligament was pulled to one side with constant hemostasis by compression with sterile cotton swabs such that the joint cavity was fully exposed. Saline was added dropwise in time to avoid the drying up of the joint cavity. The excess muscle tissue was gently separated with a blunt forceps to expose the meniscus ligament. The anterior cruciate ligament was found in the depth of the joint cavity and cut with micro scissor. Then the wound was disinfected with penicillin solution, the muscle was sutured with sterile needle and thread, and the skin tissue was finally sutured. The efficacy of the drug was determined by intra-articular injection administration. At the endpoint of the test, continued pain threshold of the plantar was detected, and the bone joints were stained with safranin fast green.

Alzheimer's disease = assay: APP×PS1 transgenic mouse model of Alzheimer's disease; assay type: in vivo; conditions: intraperitoneal injection, twice a week, 11 consecutive weeks; cerebral cortex; FIG. 8
Method: In this example, the efficacy of the compounds of the present disclosure was tested on Alzheimer's disease in an animal model of Alzheimer's disease. Briefly, a transgenic mouse model of APP×PS1 (purchased from Cyagen Biosciences) was selected and the compound of the present disclosure was administered by intraperitoneal injection for 11 consecutive weeks, twice a week. Alterations in amyloid in the cerebral cortex of the mice were observed.

hepatic fibrosis = assay: CCl4 mouse model of hepatic fibrosis; assay type: in vivo, mice; conditions: intraperitoneal (IP) injection twice a week from third week of modelling; FIG. 9
Method: In this example, the efficacy of the compounds of the present disclosure was tested on hepatic fibrosis in an animal model of hepatic fibrosis. Briefly, C57BL/6N mice, male, 7 to 8 weeks old, 24 to 28 g of body weight, were used. The mouse model of hepatic fibrosis was induced by intraperitoneal injection of CCl4 solution at a dosage of 1 mL/kg, with a dosing frequency of 2 times/week, and a modelling cycle of 6 weeks. Dosing via intraperitoneal injection was started from the third week of modelling twice a week. At the end of the test, serum was collected, and liver tissue was taken for Masson staining index assay.

aging skin = assay: Aging skin in naturally aging mouse model; assay type: in vivo; conditions: skin application twice a week, 6 consecutive weeks; aged female mice (22 months old); FIG. 10
Method: In this example, aged female C57bl/6J mice (22 months old) were used. The drug was administered by skin application at twice a week for 6 consecutive weeks.

renal fibrosis = assay: Renal fibrosis animal model (ureter ligation); assay type: in vivo, mice; conditions: intraperitoneal (IP) injection from 2nd week of modelling; FIG. 11
Method: In this example, the efficacy of the compound of the present disclosure was tested on renal fibrosis in an animal model of renal fibrosis. Briefly, C57BL/6J mice, male, 7 to 8 weeks old, were used. The mice were anaesthetized, made to lie supine on a foam board, and disinfected with iodophor, and a longitudinal incision was made in the skin in the middle of the lower abdomen to locate the white line of the abdominal muscle, where the abdominal muscle, fascia and peritoneal layer were dissected. After exposing the surgical field, the kidneys were exposed by pushing the stomach and mesentery of the mice to the right side with a gauze soaked with saline. The model of renal fibrosis was constructed by locating the transparent ureter from the renal pelvis along the renal artery, separating the left ureter, ligating the upper ⅓ of the left ureter, suturing the incision layer by layer, and finally disinfecting with iodophor. Dosing via intraperitoneal injection was started from the 2nd week of modelling. At the end of the experiment, the mouse serum was collected and kidney tissues were taken for Masson staining index assay.

Cc1c(-c2ccc(N3CCc4cccc(C(=O)Nc5nc6ccccc6s5)c4C3)nc2C(=O)O)cnn1CC12CC3CC(CC(C3)C1)C2 [Compound A-1331852, reference compound]
cytotoxicity against senescent cells (cell viability) [1]: killing senescent cells | cytotoxicity against normal cells (cell viability) [2]: significant cytotoxicity against normal cells | senescent cell clearance index (Senolytic Index) [3]: D (D represents 30 to 50)

Cc1c(-c2ccc(N3CCc4cccc(C(=O)Nc5nc6ccccc6s5)c4C3)nc2C(=O)OCOC(=O)OC(C)C)cnn1CC12CC3CC(CC(C3)C1)C2 [RZ002]
senescent cell clearance index (Senolytic Index) [3]: B (B represents 100 to 200) | vascular permeability in both the retinal and choroidal vascular leakage (diabetic retinopathy): improved vascular permeability | fluorescence intensity indicators [4]: statistically significant improvements | HYP (hydroxyproline, lung tissue) [5]: statistically significant improvements | WBC (white blood cell count, alveolar lavage fluid) [5]: statistically significant improvements | pathology scores (H&E and Masson staining, lung) [5]: statistically significant improvements | pathology scores of safranin fast green staining (osteoarthritis): statistically significant improvements | plantar mechanical pain threshold (osteoarthritis): statistically significant improvements | Aβ42 pathogenic protein indicators (Alzheimer's disease): statistically significant improvements | pathology scores (liver, Masson staining) (hepatic fibrosis): statistically significant improvements | serum alanine aminotransferase (ALT) levels (hepatic fibrosis): statistically significant improvements | serum aspartate aminotransferase (AST) levels (hepatic fibrosis): statistically significant improvements | epidermal thickness scores of the skin (aging skin): statistically significant improvements | pathology (kidney, Masson staining) (renal fibrosis): statistically significant improvements | serum creatinine (Cr) levels (renal fibrosis): statistically significant improvements | serum urea nitrogen (BUN) levels (renal fibrosis): statistically significant improvements

Cc1c(-c2ccc(N3CCc4cccc(C(=O)Nc5nc6ccccc6s5)c4C3)nc2C(=O)OCOC(=O)C(C)(C)C)cnn1CC12CC3CC(CC(C3)C1)C2 [RZ003]
senescent cell clearance index (Senolytic Index) [3]: B (B represents 100 to 200)

CCCC(=O)OCOC(=O)c1nc(N2CCc3cccc(C(=O)Nc4nc5ccccc5s4)c3C2)ccc1-c1cnn(CC23CC4CC(CC(C4)C2)C3)c1C [RZ004]
senescent cell clearance index (Senolytic Index) [3]: B (B represents 100 to 200)

CC(=O)OCOC(=O)c1nc(N2CCc3cccc(C(=O)Nc4nc5ccccc5s4)c3C2)ccc1-c1cnn(CC23CC4CC(CC(C4)C2)C3)c1C [RZ005]
senescent cell clearance index (Senolytic Index) [3]: B (B represents 100 to 200)

CCOC(=O)OCOC(=O)c1nc(N2CCc3cccc(C(=O)Nc4nc5ccccc5s4)c3C2)ccc1-c1cnn(CC23CC4CC(CC(C4)C2)C3)c1C [RZ006]
senescent cell clearance index (Senolytic Index) [3]: B (B represents 100 to 200)

CCC(=O)OC(OC(=O)c1nc(N2CCc3cccc(C(=O)Nc4nc5ccccc5s4)c3C2)ccc1-c1cnn(CC23CC4CC(CC(C4)C2)C3)c1C)C(C)C (stereo not drawn) [RZ007]
senescent cell clearance index (Senolytic Index) [3]: B (B represents 100 to 200)

CCCCOC(=O)c1nc(N2CCc3cccc(C(=O)Nc4nc5ccccc5s4)c3C2)ccc1-c1cnn(CC23CC4CC(CC(C4)C2)C3)c1C [RZ008]
senescent cell clearance index (Senolytic Index) [3]: F (F represents less than 10)

Cc1c(-c2ccc(N3CCc4cccc(C(=O)Nc5nc6ccccc6s5)c4C3)nc2C(=O)OC(C)OC(=O)C(C)C)cnn1CC12CC3CC(CC(C3)C1)C2 (stereo not drawn) [RZ009]
senescent cell clearance index (Senolytic Index) [3]: B (B represents 100 to 200)

Cc1c(-c2ccc(N3CCc4cccc(C(=O)Nc5nc6ccccc6s5)c4C3)nc2C(=O)OC(C)OC(=O)OC(C)C)cnn1CC12CC3CC(CC(C3)C1)C2 (stereo not drawn) [RZ010]
senescent cell clearance index (Senolytic Index) [3]: C (C represents 50 to 100)

Cc1c(-c2ccc(N3CCc4cccc(C(=O)Nc5nc6ccccc6s5)c4C3)nc2C(=O)OCCN2CCOCC2)cnn1CC12CC3CC(CC(C3)C1)C2 [RZ011]
senescent cell clearance index (Senolytic Index) [3]: F (F represents less than 10)

CCOC(=O)c1nc(N2CCc3cccc(C(=O)Nc4nc5ccccc5s4)c3C2)ccc1-c1cnn(CC23CC4CC(CC(C4)C2)C3)c1C [RZ202]
senescent cell clearance index (Senolytic Index) [3]: F (F represents less than 10)

Cc1c(-c2ccc(N3CCc4cccc(C(=O)Nc5nc6ccccc6s5)c4C3)nc2C(=O)OCOC(=O)[C@@H](N)C(C)C)cnn1CC12CC3CC(CC(C3)C1)C2 [RZ301]
senescent cell clearance index (Senolytic Index) [3]: B (B represents 100 to 200)
